In patent publication US7091240B2, “Tubulin binding ligands and corresponding prodrug constructs” (Oxigene, Inc., priority 2000, dated 2006):
Where two headings read alike, the source gives them in different places.

Experiments:
[1] = test system: human breast cancer MDA-MB-231 model; experiment: Tumor growth control in vivo; settings: 400 mg/kg i.p. in saline, SCID mice, Days 1, 2 and 6 post-treatment
Description: The antitumor activity of BbT prodrug 8 was assessed in female tumor-bearing mice by measuring its effects on tumor volume in comparison with CA4P. A human breast cancer MDA-MB-231 model was established by subcutaneous injection of cultured M DA-MB-231 cells (1×10^6) in Fox Chase CB-17 SCID mice.
Mice were administered CA4P or BbT prodrug in saline carrier at 400 mg/kg by intraperitoneal (i.p.) injection after 1 week of MDA-MB inoculation. Saline carrier only was used as the control treatment. On Days 1, 2 and 6 post-treatment, tumors were measured by width and length by a caliber. Tumor volume was calculated according to the following formula: Length×Width^2×0.4. The relative anti-tumor effects are illustrated in FIG. 9.

[2] = test system: murine hemangioendothelioma MHEC-5T cell line; experiment: In vitro antiproliferative activity, MTT assay; type: cell-based
Description: The following compounds were tested for in vitro antiproliferative activity against the murine hemangioendothelioma MHEC-5T cell line using a standard MTT assay (see Mosman, J. Immunol. Methods, 1983). In actively proliferating cells, an increase in MTT conversion is spectrophotometrically quantified by the reduction of MTT (3-[4,5-dimethylthiazol-2-yl]-2,5-diphenyl tetrazolium bromide) to the insoluble formazan dye by enzymes associated with metabolic activity. A compound with growth inhibitory activity will cause a reduction in dye formation relative to cells exposed to a vehicle control.

purified tubulin = experiment: Inhibition of tubulin polymerization assay; type: biochemical, bovine; settings: for IC50: read-out: IC50 In Vitro Inhibition of Tubulin Polymerization, 1.5 mg/ml tubulin, preincubated 15 minutes at 37° C., GTP-induced
Description: IC50 values for tubulin polymerization were determined according to a previously described procedure (Bai et al, Cancer Research, 1996). Purified tubulin is obtained from bovine brain cells as described in Hamel and Lin (Hamel and Lin, Biochemistry, 1984). Various amounts of inhibitor were preincubated for 15 minutes at 37° C. with purified tubulin. After the incubation period, the reaction was cooled and GTP was added to induce tubulin polymerization. Polymerization was then monitored in a Gilford spectrophotometer at 350 nm. The final reaction mixtures (0.25 ml) contained 1.5 mg/ml tubulin, 0.6 mg/ml microtubule-associated proteins (MAPs), 0.5 mM GTP, 0.5 mM MgCl2, 4% DMSO and 0.1M 4-morpholineethanesulfonate buffer (MES, pH 6.4).

FADU = experiment: In vitro cytotoxicity against human cancer cell lines (SRB); type: cell-based; settings: pharyngeal; 48 hours incubation
Description: (§1) The activity of several compounds were tested against a variety of cell lines derived from human tumors, using an assay system similar to a procedure previously described (Monks et al, J. Natl. Cancer Inst., 1991). Briefly, the cell suspensions, diluted according to the particular cell type and the expected target cell density (5,000–40,000 cells per well based on cell growth characteristics), were added by pipet (100 μl) to 96-well microtiter plates. Inoculates were allowed a preincubation time of 24–28 hours at 37° C. for stabilization. Incubation with the inhibitor compounds lasted for 48 hours in 5% CO2 atmosphere and 100% humidity. Determination of cell growth was performed by in situ fixation of cells, followed by staining with a protein-binding dye sulforhodamine B (SRB), which binds to the basic amino acids of cellular macromolecules. The solubilized stain was measured spectrophotometrically.
(§2) Compounds were evaluated in terms of growth inhibitory activity against several human cancer cell lines including: central nervous system (“CNS”, SF-295 or SF-268), pancreas (BXPC-3), non-small cell lung cancer (“lung-NSC”, NCI-H460), breast (MCF-7), colon (KM20L2), ovarian (OVCAR-3), pharyngeal (FADU), or prostate (DU-145).

OVCAR-3 = experiment: as above; type: cell-based; settings: ovarian; 48 hours incubation
Description: as §1, §2

In vitro cytotoxicity = type: cell-based
BXPC-3 = experiment: In vitro cytotoxicity against human cancer cell lines (SRB); type: cell-based; settings: pancreas; 48 hours incubation
Description: as §1, with “Briefly,” for “The activity of several compounds were tested against a variety of cell lines derived from human tumors, using an assay system similar to a procedure previously described (Monks et al, J. Natl. Cancer Inst., 1991). Briefly,”
as §2

DU-145 = experiment: as above; type: cell-based; settings: prostate; 48 hours incubation
Description: as §1, with “Briefly,” for “The activity of several compounds were tested against a variety of cell lines derived from human tumors, using an assay system similar to a procedure previously described (Monks et al, J. Natl. Cancer Inst., 1991). Briefly,”
as §2

SF-295 = experiment: as above; type: cell-based; settings: CNS; 48 hours incubation; unstarred values
Description: as §1, with “Briefly,” for “The activity of several compounds were tested against a variety of cell lines derived from human tumors, using an assay system similar to a procedure previously described (Monks et al, J. Natl. Cancer Inst., 1991). Briefly,”
as §2

NCI-H460 = experiment: as above; type: cell-based; settings: lung-NSC; 48 hours incubation
Description: as §1, with “Briefly,” for “The activity of several compounds were tested against a variety of cell lines derived from human tumors, using an assay system similar to a procedure previously described (Monks et al, J. Natl. Cancer Inst., 1991). Briefly,”
as §2

KM20L2 = experiment: as above; type: cell-based; settings: colon; 48 hours incubation
Description: as §1, with “Briefly,” for “The activity of several compounds were tested against a variety of cell lines derived from human tumors, using an assay system similar to a procedure previously described (Monks et al, J. Natl. Cancer Inst., 1991). Briefly,”
as §2

MCF-7 = experiment: as above; type: cell-based; settings: breast; 48 hours incubation
Description: as §1, with “Briefly,” for “The activity of several compounds were tested against a variety of cell lines derived from human tumors, using an assay system similar to a procedure previously described (Monks et al, J. Natl. Cancer Inst., 1991). Briefly,”
as §2

SF-268 = experiment: as above; type: cell-based; settings: CNS; 48 hours incubation; values marked *
Description: as §1, with “Briefly,” for “The activity of several compounds were tested against a variety of cell lines derived from human tumors, using an assay system similar to a procedure previously described (Monks et al, J. Natl. Cancer Inst., 1991). Briefly,”
as §2

[3] = test system: MHEC-5T hemangioendothelioma tumor model; experiment: Inhibition of tumor blood flow, Fluorescent Bead Assay; type: in vivo; settings: single i.p. injection, 24 hours post-treatment, SCID mice
Description: The antivascular effects of the diphosphate BbF, Oxi-com 223, was assessed in tumor-bearing mice using a Fluorescent Bead Assay. A MHEC-5T hemangioendothelioma tumor model was established by subcutaneous injection of 0.5×10^6 cultured transformed cell murine myocardial vascular endothelial cell line (“MHEC5-T”) cells into the right flank of Fox Chase CB-17 Severe Combined Immunodeficient (“SCID”) mice. […] At 24 hours post-treatment, mice were injected intravenously with 0.25 ml of diluted FluoSphere beads (1:6 in physiological saline) in the tail vein, sacrificed after 3 minutes, and tumor was excised for cryosectioning. Tumor cryosections at a thickness of 8 μm were directly examined using quantitative fluorescent microscopy. Blood vessels were indicated by blue fluorescence from injected beads. For quanitification, image analysis of 3 sections from three tumors treated in each group were examined and vascular shutdown was expressed as vessel area (mm^2) per tumor tissue area (mm^2) as a percentage of the control (“% VAPM”). Compounds of the present invention were tested for antivascular effects at two dosages (100 mg/kg and 10 mg/kg) using the same Fluorescent Bead Assay as in the previous experiment.

[4] = 5 days, read-out: IC50 at 5 days
[5] = read-out: IC50 at 1 hour, 1 hour

IC50 (purified tubulin) | SMILES | IC50 [2, 4] | IC50 [2, 5] | GI50 for Cell Line BXPC-3 (BXPC-3) | GI50 for Cell Line DU-145 (DU-145) | GI50 for Cell Line NCI-H460 (NCI-H460) | other results
 | COc1ccc(/C=C\c2cc(OC)c(OC)c(OC)c2)cc1OP(=O)([O-])[O-].[Na+].[Na+] [CA4P, Combretastatin A-4 Disodium Phosphate Prodrug, reference compound] | 0.002 µM | 0.8 µM |  |  |  | effect on tumor growth (tumor volume) relative to control treatment [1]: significantly inhibited tumor growth
1 to 4 µM | COc1ccc2c(-c3ccc(OC)c(O)c3O)coc2c1 [Compound 28, 3-(2′,3′-hydroxy-4′-methoxyphenyl)-6-methoxybenzo[b]furan] |  |  |  |  |  | 
1 to 4 µM | COc1ccc2c(-c3ccc(OC)c(O)c3O)c(C(=O)c3cc(OC)c(OC)c(OC)c3)oc2c1 [Compound 31, 3-(2″,3″-dihydroxy-4″-methoxyphenyl)-6-methoxy-2-(3′,4′,5′-trimethoxybenzoyl)benzo[b]furan] |  |  |  |  |  | 
 | C#C/C=C\C#CC(=O)c1cc(OC)c(OC)c(OC)c1 [Enediyne, 47, 1-(3,4,5-trimethoxybenzoyl)-(Z)-3-ene-1,5-hexadiyne] |  |  | 1.4 µg/mL | 0.54 µg/mL | 1.7 µg/mL | GI50 for Cell Line FADU (FADU): 0.95 µg/mL; GI50 for Cell Line OVCAR-3 (OVCAR-3): 0.53 µg/mL; inhibition of tubulin polymerization (in words) (purified tubulin): excellent inhibition of tubulin polymerization; cytotoxicity (in words) (In vitro cytotoxicity): strong cytotoxicity; GI50 for Cell Line SF-295 (SF-295): 1.7 µg/mL
 | COc1ccc2c(C(=O)c3cc(OC)c(OC)c(OC)c3)c(-c3ccc(OC)c(OP(=O)([O-])[O-])c3)sc2c1.[Na+].[Na+] [Oxi-com 140, 8, 3-(3′,4′,5′-trimethoxybenzoyl)-2-(3′-sodiumphosphate-4′-methoxyphenyl)-6-methoxybenzo[b]thiophene] | 0.129 µM | > 11.2 µM | 0.35 µg/mL | 0.045 µg/mL | 0.035 µg/mL | effect on tumor growth (tumor volume) relative to control treatment [1]: significantly inhibited tumor growth; GI50 for Cell Line KM20L2 (KM20L2): 0.22 µg/mL; GI50 for Cell Line SF-295 (SF-295): 0.11 µg/mL; GI50 for Cell Line MCF-7 (MCF-7): 0.028 µg/mL
 | COc1ccc2c(C(=O)c3cc(OC)c(OC)c(OC)c3)c(-c3ccc(OC)c(OP(=O)([O-])[O-])c3)oc2c1.[Na+].[Na+] [Oxi-com 223, 33, 3-(3′,4′,5′-trimethoxybenzoyl)-2-(3′-disodiumphosphate-4′-methoxyphenyl)-6-methoxybenzo[b]furan] | > 1.4 µM | > 50 µM |  |  |  | % VAPM at 10 mg/kg dose ([3]; 10 mg/kg): 10%; % VAPM at 100 mg/kg dose ([3]; 100 mg/kg): 51%

SMILES | IC50 (purified tubulin) | IC50 [2, 4] | IC50 [2, 5] | GI50 for Cell Line BXPC-3 (BXPC-3) | GI50 for Cell Line DU-145 (DU-145) | GI50 for Cell Line NCI-H460 (NCI-H460) | other results
COc1ccc2c(C(=O)c3cc(OC)c(OC)c(OC)c3)c(-c3ccc(OC)c(OP(=O)([O-])[O-])c3)oc2c1.[Na+].[Na+] [Oxi-com 195, 19, 2-(3″-disodiumphosphate-4″-methoxyphenyl)-6-methoxy-3-(3′,4′,5′-trimethoxybenzoyl)benzo[b]furan] | 4 to 10 µM | 0.1 µM | > 25 µM | 2.3 µg/mL | 0.05 µg/mL | 0.05 µg/mL | GI50 for Cell Line KM20L2 (KM20L2): 3.8 µg/mL; GI50 for Cell Line SF-268 (SF-268): *0.062 μg/ml; GI50 for Cell Line MCF-7 (MCF-7): 0.042 µg/mL
